Test results as given in patent US5473096A, “Substituted benzoate derivatives” (Shionogi & Co., Ltd., priority 1992, dated 1995).

What follows are compounds tested against T1, PLA2 (phospholipase A2) from rat platelets (Rattus norvegicus, UniProt P14423) (assay: Phospholipase A2 inhibitory activity (release of free fatty acid from 14C-labelled phosphatidylethanolamine)). Details: rat platelet PLA2; Tris-buffer 0.1M, pH 7.4; CaCl2 3 mM; 37° C., 20 minutes.
T1 construct: from tissue; host or cells: rat platelets
T1 sequence (P14423 22-146): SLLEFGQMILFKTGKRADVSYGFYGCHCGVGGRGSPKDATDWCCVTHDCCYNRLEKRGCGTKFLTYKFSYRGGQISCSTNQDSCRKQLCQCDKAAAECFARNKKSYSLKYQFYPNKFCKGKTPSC
Assay type: biochemical
Description: The compounds of the present invention were tested for their Phospholipase A2 inhibitory activity by the following procedure.
1-Palmitoyl-2-[1-^14 C]-linoleoyl L-3-Phosphatidylethanolamine (Amersham, Inc., 59 mCi/mmol) were diluted with L-α-phosphatidylethanolamine (Sigma, Co., from […]) [2,000 dpm/nmol], and the dilution was sonicated. The resultant dilution was used as a substrate. The PLA2 (phospholipase A2) which was used in the test was from rat platelets. The PLA2 and the substrate preparation were added to a solution of CaCl2 (3 mM)in Tris-buffer (0.1M, pH 7.4), and the mixture was allowed to react at 37° C. for 20 minutes. Then, the reaction was terminated by adding 1.25 ml of Dole's reagent to the reaction mixture and stirring immediately the resultant mixture. To the mixture was added 0.5 ml of distilled water and 0.8 ml of n-heptane, and the mixture was stirred, centrifuged, and the resulting supernatant was taken into another tube. To this supernatant were added additional 0.8 ml of n-heptane and silica gel, and the mixture was stirred, centrifuged, and then the supernatant was taken into vials. Toluene cocktails were added to the vials. The amount of free fatty acid released from PLA2 (DPM value) was determined using liquid scintillation counter.
Inhibitory activity (%) was estimated by the formula: [(DPM value at the addition of the inhibitor-DPM value without PLA2)/(DPM value with only PLA2 -DPM value without PLA2)]×100.

Row | SMILES | IC50 [µM]
1 | CCOC(=O)CNCc1c(C)c(C(=O)Oc2c(C)c(C)c(C(=O)Oc3c(C)c(C)c(C(=O)O)c(OC)c3C)c(OC)c2C)c(O)c(C)c1O [Compound 1b] | 0.17
2 | COc1c(C)c(OC(=O)c2c(C)c(C)c(OC(=O)c3c(C)c(CNCC(=O)OCc4ccccc4)c(O)c(C)c3O)c(C)c2OC)c(C)c(C)c1C(=O)O [Compound 1a, 4-[4'-(4"-Carboxy-3"-methoxy-2",5",6"-trimethylphenoxycarbony)-3'-methoxy-2',5',6'-trimethylphenoxycarbonyl]-2,5-dimethyl-6-benzyloxyglycylmethylresorcinol] | 0.026
3 | COc1ccc(CCOCc2c(C)c(C(=O)Oc3c(C)c(C)c(C(=O)Oc4c(C)c(C)c(C(=O)O)c(OC)c4C)c(OC)c3C)c(O)c(C)c2O)cc1 [Compound 1c] | 0.16
4 | CCCCOCc1c(C)c(C(=O)Oc2c(C)c(C)c(C(=O)Oc3c(C)c(C)c(C(=O)O)c(OC)c3C)c(OC)c2C)c(O)c(C)c1O [Compound 1d] | 0.12

Next, values leading:

Row | IC50 [µM] | SMILES
5 | 3.9 | COCc1c(C)c(C(=O)Oc2c(C)c(C)c(C(=O)O)c(OC)c2C)c(OC)c(C)c1O [Compound 1i]
6 | 0.34 | COCc1c(C)c(C(=O)Oc2c(C)c(C)c(C(=O)Oc3c(C)c(C)c(C(=O)O)c(OC)c3C)c(OC)c2C)c(O)c(C)c1O [Compound 1g]
7 | 1.1 | COc1c(C)c(OC(=O)c2c(C)c(C)c(OC(=O)c3c(C)c(CNCCCCC(NC(=O)OCc4ccccc4)C(N)=O)c(O)c(C)c3O)c(C)c2OC)c(C)c(C)c1C(=O)O (stereo not drawn) [Compound 1e]
8 | 0.38 | COc1c(C)c(OC(=O)c2c(C)c(C)c(OC(=O)c3c(C)c(CO)c(O)c(C)c3O)c(C)c2OC)c(C)c(C)c1C(=O)O [Compound 1f]
9 | 0.3 | COc1c(C)c(OC(=O)c2c(C)c(C)c(OC(=O)c3c(C)c(CN[C@H](C)c4ccccc4)c(O)c(C)c3O)c(C)c2OC)c(C)c(C)c1C(=O)O [Compound 6b, 4-[4'-[5"-(Sec-phenethylaminomethyl)-2",4"-dihydroxy-3",6"-dimethylphenylcarboxy]-2'-methoxy-3',5',6'-trimethyl]phenylcarboxy-2-methoxy-3,5,6-trimethyl benzoic acid]
